Assay results from the NIST ThermoML archive (doi:10.1021/je050031f).
Numbers after ± are expanded uncertainties.

Columns and labels:
[1] = refractive index (Na D-line) (dimensionless); xn = mol fraction of the nth substance listed; settings: 100.8 kPa, Liquid, Standard Abbe refractometry
[2] = xn = mol fraction of the nth substance listed; settings: 100.8 kPa, Liquid; for viscosity: Capillary tube (Ostwald / Ubbelohde) method

CC1CCCCC1 [methylcyclohexane] + CC(C)OC(C)C
Settings	mass density, 288.15 K [kg/m3]	mass density, 298.15 K [kg/m3]	mass density, 308.15 K [kg/m3]	refractive index, 288.15 K	refractive index, 298.15 K	refractive index, 308.15 K	viscosity, 288.15 K [mPa·s]	viscosity, 298.15 K [mPa·s]	viscosity, 308.15 K [mPa·s]
[1], x2 = 0	–	–	–	1.42578 ± 0.00033	1.42053 ± 0.00033	1.41537 ± 0.00033	–	–	–
[1], x2 = 0.0502	–	–	–	1.42321 ± 0.00032	1.41757 ± 0.00032	1.4125 ± 0.00032	–	–	–
[1], x2 = 0.1	–	–	–	1.42014 ± 0.00032	1.4146 ± 0.00032	1.40957 ± 0.00032	–	–	–
[1], x2 = 0.15	–	–	–	1.41715 ± 0.00032	1.41158 ± 0.00032	1.40663 ± 0.00032	–	–	–
[1], x2 = 0.2	–	–	–	1.41419 ± 0.00032	1.40859 ± 0.00032	1.40365 ± 0.00032	–	–	–
[1], x2 = 0.25	–	–	–	1.41129 ± 0.00032	1.40565 ± 0.00032	1.40068 ± 0.00032	–	–	–
[1], x2 = 0.3	–	–	–	1.40842 ± 0.00032	1.40277 ± 0.00032	1.39775 ± 0.00032	–	–	–
[1], x2 = 0.35	–	–	–	1.40558 ± 0.00032	1.3999 ± 0.00032	1.39484 ± 0.00032	–	–	–
[1], x2 = 0.4	–	–	–	1.40277 ± 0.00032	1.39707 ± 0.00032	1.39197 ± 0.00032	–	–	–
[1], x2 = 0.45	–	–	–	1.39999 ± 0.00032	1.39428 ± 0.00032	1.38912 ± 0.00032	–	–	–
[1], x2 = 0.5	–	–	–	1.39721 ± 0.00032	1.3915 ± 0.00032	1.38631 ± 0.00032	–	–	–
[1], x2 = 0.55	–	–	–	1.3945 ± 0.00032	1.38878 ± 0.00032	1.38356 ± 0.00032	–	–	–
[1], x2 = 0.6	–	–	–	1.3918 ± 0.00032	1.3861 ± 0.00032	1.38083 ± 0.00032	–	–	–
[1], x2 = 0.65	–	–	–	1.38914 ± 0.00032	1.38347 ± 0.00032	1.37818 ± 0.00032	–	–	–
[1], x2 = 0.7	–	–	–	1.38652 ± 0.00032	1.38082 ± 0.00032	1.37552 ± 0.00032	–	–	–
[1], x2 = 0.75	–	–	–	1.38392 ± 0.00031	1.37823 ± 0.00031	1.37286 ± 0.00031	–	–	–
[1], x2 = 0.8	–	–	–	1.38136 ± 0.00031	1.37565 ± 0.00031	1.37025 ± 0.00031	–	–	–
[1], x2 = 0.85	–	–	–	1.37883 ± 0.00031	1.37309 ± 0.00031	1.36765 ± 0.00031	–	–	–
[1], x2 = 0.9	–	–	–	1.37629 ± 0.00031	1.37053 ± 0.00031	1.36503 ± 0.00031	–	–	–
[1], x2 = 0.95	–	–	–	1.37377 ± 0.00031	1.36799 ± 0.00031	1.36243 ± 0.00031	–	–	–
[2], x2 = 0	773.4 ± 0.3	765 ± 0.3	756.3 ± 0.3	–	–	–	0.784	0.685	0.6
[2], x2 = 0.0502	771.3 ± 0.3	762.5 ± 0.3	753.8 ± 0.3	–	–	–	0.744	0.653	0.575
[2], x2 = 0.1	768.9 ± 0.3	760.1 ± 0.3	751.3 ± 0.3	–	–	–	0.697	0.612	0.542
[2], x2 = 0.15	766.6 ± 0.3	757.7 ± 0.3	748.8 ± 0.3	–	–	–	0.66	0.579	0.514
[2], x2 = 0.2	764.3 ± 0.3	755.3 ± 0.3	746.3 ± 0.3	–	–	–	0.627	0.551	0.489
[2], x2 = 0.25	761.9 ± 0.3	752.9 ± 0.3	743.8 ± 0.3	–	–	–	0.595	0.524	0.467
[2], x2 = 0.3	759.6 ± 0.3	750.5 ± 0.3	741.3 ± 0.3	–	–	–	0.568	0.502	0.448
[2], x2 = 0.35	757.4 ± 0.3	748.1 ± 0.3	738.9 ± 0.3	–	–	–	0.543	0.481	0.43
[2], x2 = 0.4	755.1 ± 0.3	745.8 ± 0.3	736.4 ± 0.3	–	–	–	0.522	0.464	0.415
[2], x2 = 0.45	752.8 ± 0.3	743.4 ± 0.3	734 ± 0.3	–	–	–	0.503	0.447	0.401
[2], x2 = 0.5	750.6 ± 0.3	741.1 ± 0.3	731.6 ± 0.3	–	–	–	0.484	0.431	0.387
[2], x2 = 0.55	748.4 ± 0.3	738.8 ± 0.3	729.2 ± 0.3	–	–	–	0.466	0.415	0.373
[2], x2 = 0.6	746.2 ± 0.3	736.5 ± 0.3	726.8 ± 0.3	–	–	–	0.447	0.399	0.36
[2], x2 = 0.65	743.9 ± 0.3	734.2 ± 0.3	724.4 ± 0.3	–	–	–	0.431	0.385	0.347
[2], x2 = 0.7	741.7 ± 0.3	731.9 ± 0.3	722 ± 0.3	–	–	–	0.415	0.372	0.335
[2], x2 = 0.75	739.6 ± 0.3	729.6 ± 0.3	719.6 ± 0.3	–	–	–	0.403	0.361	0.325
[2], x2 = 0.8	737.4 ± 0.3	727.3 ± 0.3	717.3 ± 0.3	–	–	–	0.389	0.349	0.316
[2], x2 = 0.85	735.3 ± 0.3	725.1 ± 0.3	714.9 ± 0.3	–	–	–	0.379	0.341	0.308
[2], x2 = 0.9	733.1 ± 0.3	722.9 ± 0.3	712.6 ± 0.3	–	–	–	0.368	0.331	0.299
[2], x2 = 0.95	731 ± 0.3	720.6 ± 0.3	710.3 ± 0.3	–	–	–	0.358	0.321	0.291
